The assay concerns Glycine max. The assay is described as follows: Activity of soybean recombinant SMT1.

Each structure is given as a SMILES string.

Experimental findings from ChEMBL document CHEMBL1140774, “Sterol C24-methyltransferase: mechanistic studies of the C-methylation reaction with 24-fluorocycloartenol” (Bioorg Med Chem Lett, 2008) are described below.

In the case of `CC(C)=CCC[C@@H](C)[C@H]1CC[C@@]2(C)[C@@H]3CC[C@H]4C(C)(C)[C@@H](O)CC[C@@]45C[C@@]35CC[C@]12C`, the Km (usually the substrate concentration at which the rate is half of its maximum) amounted to 30 µM; the kcat (usually the number of substrate molecules converted per active site and unit of time at saturation) came out at 0.01 s⁻¹.
